Experiments:
c-myb:GFP = c-myb:GFP zebrafish blastomere embryo culture chemical screen; assay type: cell-based; settings: approximately 30 μM, 2 days
Procedure: The inventors have developed an embryo culture system in which embryos bearing a c-myb:GFP transgenic reporter were dissociated during sphere stage at 4 hours post fertilization (hpf), and cultured in gelatin-coated 384 well plates with chemicals for 2 days until imaging for fluorescent reporter activity (FIG. 1). This fluorescent transgene is expressed in a similar pattern to the endogenous gene. […] This transgene responds to inducers of hematopoiesis, as myb is a marker of hematopoietic stem cells (HSCs).
The image analysis software (ImageJ and MatLab) was used to identify hits that downregulate c-myb:GFP zebrafish embryo cultures by a z-score less than […] and more than 70% downregulation. Hits were assessed by eye and scored for morphology. Toxic compounds that caused poor embryoid body (EB) formation were assessed a 4.
Zebrafish cell culture: Zebrafish embryo cultures were adapted from Xu (2013). Dissociated blastomere cells were grown in medium composed of 85% LDF medium, 5% heat inactivated FBS, and 10% zebrafish day 1 embryo extract. LDF medium contains 50% Leibowitz's L-15 (Invitrogen), 20% DMEM (Invitrogen), and 30% DMEM/F-12 (Invitrogen), supplemented with 0.018% sodium bicarbonate, 15 mM HEPES (Invitrogen), 1% L-Glutamine (Invitrogen), 10 nM sodium selenite (Sigma-Aldrich), 1% N2 (Invitrogen), 2% B27 (Invitrogen), 1% Penicillin-Streptomycin (Invitrogen), and 0.2% Primocin (InvivoGen).
Screening procedures: Two 384-well plates were coated with 0.1% gelatin for each chemical library plate. Males of the c-myb:GFP transgenic line were set up overnight with casper females and kept separated until morning when they were mixed for mating. Embryos were washed twice with E3 embryo water and treated with pronase to remove chorions. Dechorionated embryos were washed with E3 embryo water and collected into tubes containing media. Embryos were disassociated by shaking ˜10 times and were filtered through a 40 μm nylon mesh filter. Resulting single cells were diluted with medium and aliquoted 30 μl per well into the 384-well plates at approximately 2 embryo equivalents per well. Chemicals were dispensed immediately afterwards with an Agilent Bravo robot. Chemicals from the libraries were diluted 300 times with LDF medium and were aliquoted 10 μl per well for a final concentration of approximately 33 μM. […] Cells were cultured in a 28° C. incubator with 5% CO2. Two days later, cells were imaged by a Yokogawa Cell Voyager 7000 imager. Images were analyzed by ImageJ and MatLab and confirmed by eye. […]
Culture of dissociated blastomere cells: Stage-matched zebrafish blastomeres were dissociated at 4 hpf and grown in medium composed of 85% LDF medium, 5% FBS, and 10% embryo extract. LDF medium contains 50% Leibowitz's L-15 (Invitrogen), 20% DMEM (Invitrogen), and 30% DMEM/F-12 (Invitrogen), supplemented with 2% B27 (Gibco), 15 mM HEPES (Gibco), 1% L-glutamine (Gibco), 1% N2 (Gibco), 10 nM sodium selenite (Sigma), 100 ug/mL piperacillin (Sigma), 10 ug/mL ciprofloxacin (GenHunter), and 0.018% sodium bicarbonate (Gibco). Embryo extract was made by homogenizing 24 hpf wildtype AB embryos in HBSS (Gibco).

c-myb [1] = assay: qPCR of sorted c-myb:GFP zebrafish embryo cells; assay type: cell-based; settings: sorted c-myb:GFP cells from 72 hpf embryos, 1 μM, 6 hours
Procedure: RA dose response experiments were plated similarly in LDF medium with the appropriate RA concentration. Sorted c-myb:GFP+ cells were collected from 72 hpf transgenic embryos that were homogenized: embryos were finely chopped and dissociated using Liberase (Roche), cell suspensions were filtered, and 58,000 GFP+ live cells were collected using a FACS Aria cell sorter (BD Biosciences). Cells were cultured for 6 hours in LDF medium, and then collected for qPCR.
(§1) Quantitative PCR: Total RNA from cells was extracted using Qiagen RNeasy Mini Kit, and random primed cDNA was generated (Invitrogen, SuperScript III First-Strand Synthesis System). The SsoFast EvaGreen (Biorad) method was used to quantify cDNAs of interest, which are represented as the fold change in transcript level. The amount of cDNA starting material for each sample was normalized in relation to species-specific β-actin expression for zebrafish samples, and both gapdh and β-actin expression for human samples. The primer sequences used were zebrafish myb: forward, 5′-[…]-3′ (SEQ ID No:1), reverse, 5′-[…]-3′ (SEQ ID No:2); zebrafish β-actin: forward, 5′-[…]-3′ (SEQ ID No:3), reverse, 5′-[…]-3′ (SEQ ID No:4); human myb: forward, 5′-[…]-3′ (SEQ ID No:5), reverse, 5′-[…]-3′ (SEQ ID No:6); human gapdh: forward, 5′-[…]-3′ (SEQ ID No:7), reverse, 5′-[…]-3′ (SEQ ID No:8); human β-actin: forward, 5′-[…]-3′ (SEQ ID No:9), reverse, 5′-[…]-3′ (SEQ ID No:10).
Zebrafish quantitative PCR analysis: Stage-matched 72 hpf c-myb:GFP transgenic embryos were finely chopped and dissociated using Liberase (Roche). GFP+ cells were collected using a FACS Aria cell sorter (BD Biosciences). Sorted cells were resuspended in zebrafish blastomere media and plated with 1 μM retinoic acid agonists for 6 hours. Cells were then collected and RNA was isolated using the RNeasy Micro Plus Kit (Qiagen) as per the manufacturer's instructions. cDNA was synthesized using the SuperScript III Kit (Life Technologies). Quantitative PCR was performed in triplicate on a BioRad iQ5 real-time PCR machine using Ssofast EvaGreen Supermix (BioRad). Samples were normalized to β-actin gene. Zebrafish primers used (forward and reverse respectively): actin, 5′-[…]-3′ (SEQ ID No:3) and 5′-[…] -3′ (SEQ ID No:4); c-myb, 5′-[…]-3′ (SEQ ID No:1) and 5′-[…]-3′ (SEQ ID No:2); mpx, 5′-[…]-3′ (SEQ ID No:11) and 5′-[…]-3′ (SEQ ID No:12); GFP, 5′-[…]-3′ (SEQ ID No:13) and 5′-[…]-3′ (SEQ ID No:14).

c-myb [2] = assay: U937 time course qPCR of c-myb; assay type: cell-based, human; settings: 1 μM; 6, 24 and 48 hours
Procedure: Cell culture: U937 cells were grown in RPMI 1640 (Life Technologies), 10% heat inactivated FBS, and 1% Penicillin-Streptomycin (Invitrogen). CellTiter-Glo Luminescent Cell Viability Assay (Promega) was performed as per manufacturer's instructions. Cell viability was assessed at day 2.
as §1
U937 time course quantitative PCR analysis: U937 cells were plated with 1 μM retinoic acid agonists for the duration indicated. Cells were then collected and RNA was isolated using the RNeasy Plus Mini Kit (Qiagen) as per the manufacturer's instructions. Further processing was done as described in the section above. Samples were normalized to β-actin gene. Human primers used (forward and reverse respectively): actin, 5′-[…]-3′ (SEQ ID No:9) and 5′-[…]-3′ (SEQ ID No:10); c-myb, 5′-[…]-3′ (SEQ ID No:5) and 5′-[…]-3′ (SEQ ID No:6).

ACC = settings: Phase II trials in ACC; cited from earlier work
[3] = Table 2, c-myb:GFP embryo cultures, average across two plates
[4] = Table 2, c-myb:GFP embryo cultures
[5] = Table 3, GFP signal in blastomere embryo culture screen

COc1ccc2c(c1)c(CC(=O)O)c(C)n2Cc1ccc(F)cc1 [1-(4-Fluorobenzyl)-5-methoxy-2-methylindole-3-acetic acid]
Z-Score (c-myb:GFP; [3]): −1.726

Cc1nsc(NC(=O)N2CCCC(Cc3ccc(F)cc3)C2)n1 (stereo not drawn) [3-(4-fluorobenzyl)-N-(3-methyl-1,2,4-thiadiazol-5-yl)piperidine-1-carboxamide]
Z-Score (c-myb:GFP; [3]): −3.287

Cc1nn(C)cc1-c1ccnc(NC(CC(C)(C)C)c2cccnc2)n1 (stereo not drawn) [4-(1,3-dimethyl-1H-pyrazol-4-yl)-N-(3,3-dimethyl-1-pyridin-3-ylbutyl)pyrimidin-2-amine]
Z-Score (c-myb:GFP; [3]): −2.29

COc1ccc(N2CCN(C(=O)Nc3nc(C)ns3)CC2(C)C)cc1 [4-(4-methoxyphenyl)-3,3-dimethyl-N-(3-methyl-1,2,4-thiadiazol-5-yl)piperazine-1-carboxamide]
Z-Score (c-myb:GFP; [3]): −2.357

Cc1nsc(NC(=O)N2CCC(Sc3ccccc3C)CC2)n1 [4-[(2-methylphenyl)thio]-N-(3-methyl-1,2,4-thiadiazol-5-yl)piperidine-1-carboxamide]
Z-Score (c-myb:GFP; [3]): −2.228

CC1=C(/C=C/C(C)=C\C=C\C(C)=C\C(=O)O)C(C)(C)CCC1 [9-cis retinoic acid]
Fold Change (c-myb:GFP; [4]): −0.9153 | Z-Score (c-myb:GFP; [3]): −1.566 | Fold Change (c-myb:GFP; [5]): −0.9153 | Z-Score (c-myb:GFP; [5]): −1.566 | endogenous myb levels by qPCR (c-myb [1]): significantly downregulate | myb levels in U937 by qPCR (c-myb [2]): significantly downregulate

C=C(C)[C@H]1CC=C(C(=O)O)CC1 [(−)-Perillic acid]
Fold Change (c-myb:GFP; [4]): −0.7327 | Z-Score (c-myb:GFP; [3]): −1.848

CCCCOCCOc1nc(-c2ccc(C(=O)O)c(F)c2)sc1C [AC 261066, 4-[4-(2-Butoxyethoxy-)-5-methyl-2-thiazolyl]-2-fluorobenzoic acid]
Fold Change (c-myb:GFP; [4]): −0.7734 | Z-Score (c-myb:GFP; [3]): −1.697 | Fold Change (c-myb:GFP; [5]): −0.7734 | Z-Score (c-myb:GFP; [5]): −1.697

CC1(C)CCC(C)(C)c2cc(C(=O)Nc3ccc(C(=O)O)cc3)ccc21 [AM-580, 4-[(5,6,7,8-Tetrahydro-5,5,8,8-tetramethyl-2-naphthalenyl)carboxamido]benzoic acid]
Fold Change (c-myb:GFP; [4]): −0.9547 | Z-Score (c-myb:GFP; [3]): −1.631 | Fold Change (c-myb:GFP; [5]): −0.9547 | Z-Score (c-myb:GFP; [5]): −1.631

CC(C)C[C@H](NC(=O)[C@H](Cc1ccccc1)NC(=O)c1cnccn1)B(O)O [Bortezomib]
Objective Response Rate (ACC): 0%

O=c1c2ccccc2[nH]c(=S)n1CCN1CCC(=C(c2ccc(F)cc2)c2ccc(F)cc2)CC1 [Diacylglycerol Kinase Inhibitor II]
Z-Score (c-myb:GFP; [3]): −1.493

CO[C@H]1C[C@@H]2CC[C@@H](C)[C@@](O)(O2)C(=O)C(=O)N2CCCC[C@H]2C(=O)O[C@H]([C@H](C)C[C@@H]2CC[C@@H](OCCO)[C@H](OC)C2)CC(=O)[C@H](C)/C=C(\C)[C@@H](O)[C@@H](OC)C(=O)[C@H](C)C[C@H](C)/C=C/C=C/C=C/1C [Everolimus]
Objective Response Rate (ACC): 0%

O=C(c1ccc(OCCN2CCCCC2)cc1)c1c(-c2ccc(O)cc2)sc2cc(O)ccc12 [Evista]
Z-Score (c-myb:GFP; [3]): −3.318

CC1(C)O[C@@H]2C[C@H]3[C@@H]4C[C@H](F)C5=CC(=O)C=C[C@]5(C)[C@H]4[C@@H](O)C[C@]3(C)[C@]2(C(=O)CO)O1 [FluniSOLIDe]
Z-Score (c-myb:GFP; [3]): −3.085

COc1cc2ncnc(Nc3ccc(F)c(Cl)c3)c2cc1OCCCN1CCOCC1 [Gefitinib]
Objective Response Rate (ACC): 0%

Cc1ccc(NC(=O)c2ccc(CN3CCN(C)CC3)cc2)cc1Nc1nccc(-c2cccnc2)n1 [Imatinib]
Objective Response Rate (ACC): 0%

Cl.FC(F)(F)c1cc(CO[C@H]2CCCN[C@H]2c2ccccc2)cc(C(F)(F)F)c1 [L-733,060 hydrochloride]
Fold Change (c-myb:GFP; [4]): −0.752 | Z-Score (c-myb:GFP; [3]): −1.715

CS(=O)(=O)CCNCc1ccc(-c2ccc3ncnc(Nc4ccc(OCc5cccc(F)c5)c(Cl)c4)c3c2)o1 [Lapatinib]
Objective Response Rate (ACC): 0%

Cc1c(C(C)Nc2ncnc3sccc23)cnn1C (stereo not drawn) [N-[1-(1,5-dimethyl-1H-pyrazol-4-yl)ethyl]thieno[2,3-d]pyrimidin-4-amine]
Z-Score (c-myb:GFP; [3]): −2.83

O=C(Cc1cccc(O)c1)NCc1cc2cc(Cl)ccc2[nH]1 [N-[(5-chloro-1H-indol-2-yl)methyl]-2-(3-hydroxyphenyl)acetamide]
Z-Score (c-myb:GFP; [3]): −3.297

Nc1nc2ccc(OC(F)(F)F)cc2s1 [Riluzole]
Z-Score (c-myb:GFP; [3]): −6.521

CNC(=O)c1cc(Oc2ccc(NC(=O)Nc3ccc(Cl)c(C(F)(F)F)c3)cc2)ccn1 [Sorafenib]
Objective Response Rate (ACC): 11%

O=C(O[C@H]1[C@H](Oc2ccccc2COC(=O)C2(O)C=CCCC2=O)O[C@H](CO)[C@@H](O)[C@@H]1O)c1ccccc1 (stereo partly drawn) [TREMULACIN]
Z-Score (c-myb:GFP; [3]): −3.9299

C/C(=C\c1ccc(C(=O)O)cc1)c1ccc2c(c1)C(C)(C)CCC2(C)C [TTNPB, 4-[(E)-2-(5,6,7,8-Tetrahydro-5,5,8,8-tetramethyl-2-naphthalenyl)-1-propenyl]benzoic acid]
Z-Score (c-myb:GFP; [3]): −1.6339 | Z-Score (c-myb:GFP; [5]): −1.634

O=C(CCCCCCC(=O)Nc1ccccc1)NO [Vorinostat]
Objective Response Rate (ACC): 3%

Source: patent US10668039B2, “Methods for treatment of adenoid cystic carcinoma” (THE CHILDREN'S MEDICAL CENTER CORPORATION, priority 2016, dated 2020)
